Laboratory results taken from article PMC6151956 (Slas Discovery, 2018).
“And” between values parts separate entries of the source, which are not always exact repeats. Equal entries are not always repeated. Where two headings read alike, the source gives them in different places.

Assays:
BTK in whole blood [1] = biological target: T1, BTK in whole blood (Homo sapiens, UniProt Q06187); assay: Stability of tirabrutinib-treated whole blood; assay type: cell-based
[2] = test system: interleukin-2-inducible T-cell kinase (ITK); conditions: cited from earlier work
TEC [3] = conditions: cited from earlier work
[4] = test system: epidermal growth factor kinase (EGFR); conditions: cited from earlier work
TEC [5] = conditions: cited from earlier work; remark: listed apart in the source
BTK in human PBMCs = BTK in human PBMCs (Homo sapiens, UniProt Q06187); assay: TR-FRET BTK occupancy assay in purified human PBMCs from healthy volunteers; assay type: cell-based
Sequence of BTK in human PBMCs (Q06187 whole entry): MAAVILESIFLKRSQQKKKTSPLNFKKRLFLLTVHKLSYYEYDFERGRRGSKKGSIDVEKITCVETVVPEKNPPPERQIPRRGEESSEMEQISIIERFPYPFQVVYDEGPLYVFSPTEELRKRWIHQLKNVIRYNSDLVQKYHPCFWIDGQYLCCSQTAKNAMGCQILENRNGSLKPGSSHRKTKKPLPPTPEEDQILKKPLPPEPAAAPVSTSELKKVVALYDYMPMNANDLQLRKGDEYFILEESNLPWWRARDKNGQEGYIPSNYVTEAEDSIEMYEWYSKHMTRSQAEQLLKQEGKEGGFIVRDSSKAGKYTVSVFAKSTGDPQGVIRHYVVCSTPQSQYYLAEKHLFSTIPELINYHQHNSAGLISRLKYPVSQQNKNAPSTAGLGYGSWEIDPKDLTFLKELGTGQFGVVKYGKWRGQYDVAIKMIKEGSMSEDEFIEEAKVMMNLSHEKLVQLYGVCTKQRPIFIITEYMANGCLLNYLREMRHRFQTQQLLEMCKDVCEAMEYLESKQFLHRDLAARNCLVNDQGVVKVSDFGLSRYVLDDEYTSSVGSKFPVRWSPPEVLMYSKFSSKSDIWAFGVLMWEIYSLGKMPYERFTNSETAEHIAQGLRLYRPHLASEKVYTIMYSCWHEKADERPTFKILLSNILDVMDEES

[6] = biological target: Recombinant full-length human BTK (rBTK) (Homo sapiens, UniProt Q06187); assay: TR-FRET BTK occupancy assay on recombinant BTK; assay type: binding
Sequence of Recombinant full-length human BTK (rBTK) (Q06187 whole entry): as above

[7] = phase 1 clinical study, cited from earlier work
BTK in whole blood [8] = biological target: T1, BTK in whole blood; assay: TR-FRET BTK occupancy assay in whole blood from healthy volunteers; assay type: cell-based
[9] = biological target: BTK in BMMCs and PBMCs from patients with CLL (Homo sapiens, UniProt Q06187); assay type: cell-based; conditions: 110 nM tirabrutinib, 2 h ex vivo
Sequence of BTK in BMMCs and PBMCs from patients with CLL (Q06187 whole entry): as above

BTK in Ramos B cells = BTK in Ramos B cells (Homo sapiens, UniProt Q06187); assay: TR-FRET BTK occupancy assay in Ramos B cells; assay type: cell-based
Sequence of BTK in Ramos B cells (Q06187 whole entry): as above

T1 sequence (Q06187 whole entry): as above

Question: For CC#CC(=O)N1CCC[C@H]1c1nc(-c2ccc(C(=O)Nc3ccccn3)cc2)c2c(N)nccn12 [acalabrutinib, reference compound], which “BTK occupancy on storage at room temperature” value (BTK in whole blood [1]) is on record?
Answer: effect of room temperature storage was also observed

Question: Which results are given for C=CC(=O)N1CCC[C@@H](n2nc(-c3ccc(Oc4ccccc4)cc3)c3c(N)ncnc32)C1 [ibrutinib]?
Answer: BTK selectivity versus ITK [2]: 21 fold; BTK selectivity versus TEC (TEC [3]): 156 fold; BTK selectivity versus EGFR [4]: 11 fold; Selectivity for BTK over TEC (TEC [5]): 5.6 fold

Question: Which “BTK occupancy on storage at 4 °C” value (BTK in whole blood [1]; whole blood pretreated 2 h, then stored at 4 °C for up to 48 h) does the source give for CC#CC(=O)N1CC[C@@H](n2c(=O)n(-c3ccc(Oc4ccccc4)cc3)c3c(N)ncnc32)C1 [tirabrutinib, Tirabrutinib] here?
Answer: maintained at the same level for up to 48 h

Question: What about the “BTK occupancy on storage at room temperature” value (BTK in whole blood [1]; whole blood pretreated 2 h, then stored at room temperature (24 h and more)) of the same compound?
Answer: significantly higher target occupancy

Question: What about the “concentration at which full BTK occupancy was achieved” value (shortened to “concentration”) (BTK in human PBMCs) of the same compound?
Answer: 500 to 1000 nM

Question: What about the “concentration” value [6] of the same compound?
Answer: 100 nM

Question: And the “response rate in CLL” value ([7]; CLL)?
Answer: 96%

Question: What about the “response rate in MCL” value ([7]; MCL) of the same compound?
Answer: 92%

Question: What about the “response in nongerminal center DLBCL” value ([7]; nongerminal center DLBCL) of the same compound?
Answer: 35%

Question: And the “concentration” value (BTK in whole blood [8])?
Answer: 500 to 1000 nM

Question: What about the BTK occupancy [9] of the same compound?
Answer: ~100% and > 80%

Question: What about the “concentration” value (BTK in Ramos B cells) of the same compound?
Answer: 500 to 1000 nM
